Where a SMILES comes first, the peptide text is derived from it. Bridges are numbered along the chain shown (N, C = ends). [ ]: non-standard residue; d: D form. The star is where a group is joined. hPhe(3-Cl-4-CF3) = N[C@@H](CCc1ccc(C(F)(F)F)c(Cl)c1)C(=O)O; NPrPhe(4-CF3) = CCCN[C@@H](Cc1ccc(C(F)(F)F)cc1)C(=O)O; NMeGly(cPent) = CN[C@H](C(=O)O)C1CCCC1; NMeD = CN[C@@H](CC(=O)O)C(=O)O; NMeL = CN[C@@H](CC(C)C)C(=O)O; Morpholide = C1CN(*)CCO1; Ac5c = NC1(C(=O)O)CCCC1; NEtG = CCNCC(=O)O; Sar = CNCC(=O)O
How the values were obtained:
[1] = molecular target: GDP-bound HRAS wild-type protein (Homo sapiens, UniProt P01112); test: Binding to HRAS by surface plasmon resonance (SPR), Single Cycle Kinetics; details: SPR
Sequence of GDP-bound HRAS wild-type protein (P01112 whole entry): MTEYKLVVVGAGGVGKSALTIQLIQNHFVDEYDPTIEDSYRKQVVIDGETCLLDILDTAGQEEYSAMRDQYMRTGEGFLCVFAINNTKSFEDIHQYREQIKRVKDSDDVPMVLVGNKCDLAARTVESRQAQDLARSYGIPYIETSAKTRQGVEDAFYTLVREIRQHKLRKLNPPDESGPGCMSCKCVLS

[2] = molecular target: GDP-bound NRAS wild-type protein (Homo sapiens, UniProt P01111); test: Binding to NRAS by surface plasmon resonance (SPR), Single Cycle Kinetics; details: SPR
Sequence of GDP-bound NRAS wild-type protein (P01111 whole entry): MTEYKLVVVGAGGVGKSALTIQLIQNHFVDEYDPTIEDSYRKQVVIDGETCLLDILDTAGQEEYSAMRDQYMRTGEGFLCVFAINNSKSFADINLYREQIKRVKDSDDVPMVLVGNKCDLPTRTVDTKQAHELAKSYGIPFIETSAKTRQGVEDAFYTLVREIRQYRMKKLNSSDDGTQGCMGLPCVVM

[3] = KD ratio, GDP-bound HRAS wild-type vs GDP-bound KRAS wild-type
[4] = KD ratio, GDP-bound NRAS wild-type vs GDP-bound KRAS wild-type
[5] = GDP-bound HRAS wild-type vs GDP-bound KRAS wild-type
[6] = GDP-bound NRAS wild-type vs GDP-bound KRAS wild-type

CC[C@H](C)[C@@H]1NC(=O)[C@H](CC(C)C)N(C)C(=O)C[C@@H](C(=O)N2CCOCC2)N(C)C(=O)[C@H](C2CCCC2)N(C)C(=O)C2(CCC2)NC(=O)[C@]2(C)CCCN2C(=O)[C@H](CCc2cc(F)c(C(F)(F)F)c(F)c2)NC(=O)CN(C)C(=O)[C@H](Cc2ccc(C(F)(F)F)cc2)N2CCCCC[C@@H](C2=O)N(C)C(=O)CN(C)C1=O [PP0817]
HRAS/KRAS (ratio of KD value with respect to HRAS to KD value with respect to KRAS) [1, 3]: B (a compound having 3 or more and less than 10 is denoted as B) | NRAS/KRAS (ratio of KD value with respect to NRAS to KD value with respect to KRAS) [2, 4]: A (a compound having 10 or more and less than 20 is denoted as A)

CCCN1C(=O)CN(C)C(=O)CN(CC)C(=O)[C@H]([C@@H](C)CC)NC(=O)[C@H](CC(C)C)N(C)C(=O)C[C@@H](C(=O)N2CCOCC2)N(C)C(=O)[C@H](C2CCCC2)N(C)C(=O)C2(CCCC2)NC(=O)[C@@H]2CCCN2C(=O)[C@H](CCc2ccc(C(F)(F)F)c(Cl)c2)NC(=O)CN(C)C(=O)[C@@H]1Cc1ccc(C(F)(F)F)cc1 [PP0145] ([NMeL]I[NEtG][Sar][NPrPhe(4-CF3)][Sar][hPhe(3-Cl-4-CF3)]P[Ac5c][NMeGly(cPent)][NMeD]-Morpholide; lactam N-11)
HRAS/KRAS (ratio of KD for GDP-bound HRAS wild-type to KD for KRAS) ([1]; KD ratio HRAS/KRAS): B (a compound having 3 or more and less than 10 is denoted as B) | NRAS/KRAS (ratio of KD for GDP-bound NRAS wild-type to KD for KRAS) ([2]; KD ratio NRAS/KRAS): B (a compound having 3 or more and less than 10 is denoted as B)

CCO[C@@H]1C[C@H]2C(=O)NC3(CCC3)C(=O)N(C)[C@@H](C3CCCC3)C(=O)N(C)[C@H](C(=O)N(C)C)CC(=O)N(C)[C@@H](Cc3cccs3)C(=O)N[C@@H]([C@@H](C)CC)C(=O)N(C)CC(=O)N(C)[C@H]3CCCCCN(C3=O)[C@@H](Cc3ccc(C(F)(F)F)cc3)C(=O)N(C)CC(=O)N[C@@H](CCc3cc(F)c(C(F)(F)F)c(F)c3)C(=O)N2C1 [PP1169]
HRAS/KRAS (ratio of KD value with respect to HRAS to KD value with respect to KRAS) [1, 3]: B (a compound having 3 or more and less than 10 is denoted as B) | NRAS/KRAS (ratio of KD value with respect to NRAS to KD value with respect to KRAS) [2, 4]: B (a compound having 3 or more and less than 10 is denoted as B)

CCOC[C@H]1C(=O)N[C@@H]([C@@H](C)CC)C(=O)N(C)CC(=O)N(C)[C@H]2C/C=C\CCN(C2=O)[C@@H](Cc2ccc(C)cc2)C(=O)N(C)CC(=O)N[C@@H](CCc2ccc(C(F)(F)F)c(OC)c2)C(=O)N2C[C@H](OCC)C[C@H]2C(=O)NC2(CC(C)(C)C2)C(=O)N(C)[C@@H](C2CCCC2)C(=O)N(C)[C@H](C(=O)N(C)CC)CC(=O)N1C [PP2445]
HRAS/KRAS (ratio of KD value with respect to HRAS to KD value with respect to KRAS) [1, 5]: B (a compound having 3 or more and less than 10 is denoted as B) | NRAS/KRAS (ratio of KD value with respect to NRAS to KD value with respect to KRAS) [2, 6]: A (a compound having 10 or more and less than 20 is denoted as A)

CCCN(C)C(=O)[C@@H]1CC(=O)N(C)[C@@H](CC(C)C)C(=O)N[C@@H]([C@@H](C)OC)C(=O)N(C)CC(=O)N(C)[C@H]2C/C=C\CCN(C2=O)[C@@H](Cc2ccc(C(F)(F)F)cc2)C(=O)N(C)CC(=O)N[C@@H](CCc2cc(F)c(C(F)(F)F)c(F)c2)C(=O)N2C[C@H](OCC)C[C@H]2C(=O)NC2(CC(C)(C)C2)C(=O)N(C)[C@@H](C2CCCC2)C(=O)N1C [PP1917]
HRAS/KRAS (ratio of KD value for HRAS to KD value for KRAS) [1, 3]: A (a compound having 10 or more and less than 20 is denoted as A) | NRAS/KRAS (ratio of KD value for NRAS to KD value for KRAS) [2, 4]: A (a compound having 10 or more and less than 20 is denoted as A)

CC[C@H](C)[C@@H]1NC(=O)[C@H](CC2CC2)N(C)C(=O)C[C@@H](C(=O)N(C)CC)N(C)C(=O)[C@H](C2CCCC2)N(C)C(=O)C2(CCC2)NC(=O)[C@@H]2C[C@H](C)CN2C(=O)[C@H](CCc2cc(F)c(C(F)(F)F)c(F)c2)NC(=O)CN(C)C(=O)[C@H](Cc2ccc(C(F)(F)F)cc2)N2CC/C=C\C[C@@H](C2=O)N(C)C(=O)CN(C)C1=O [PP1537]
HRAS/KRAS (ratio of KD value for GDP-bound HRAS wild-type protein to KD value for KRAS) ([1]; KD ratio class): A (a compound having 10 or more and less than 20 is denoted as A) | NRAS/KRAS (ratio of KD value for GDP-bound NRAS wild-type protein to KD value for KRAS) ([2]; KD ratio class): AA (a compound having 20 or more is denoted as AA)

CCC(CC)[C@H]1C(=O)N(C)[C@H](C(=O)N(C)C)CC(=O)N(C)[C@@H](COC)C(=O)N[C@@H]([C@@H](C)CC)C(=O)N(C)CC(=O)N(C)[C@H]2C/C=C\CCN(C2=O)[C@@H](CC2CCC(F)(F)CC2)C(=O)N(C)CC(=O)N[C@@H](CCc2ccc(C(F)(F)F)c(Cl)c2)C(=O)N2C[C@@H](C)C[C@H]2C(=O)NC2(CC(C)(C)C2)C(=O)N1C [PP2454]
HRAS/KRAS (ratio of KD value with respect to HRAS to KD value with respect to KRAS) [1, 5]: A (a compound having 10 or more and less than 20 is denoted as A) | NRAS/KRAS (ratio of KD value with respect to NRAS to KD value with respect to KRAS) [2, 6]: AA (a compound having 20 or more is denoted as AA)

From patent US20250230193A1, “CYCLIC COMPOUND HAVING SELECTIVE KRAS INHIBITORY EFFECT ON HRAS AND NRAS” (CHUGAI SEIYAKU KABUSHIKI KAISHA, priority 2022, published 2025)
